B1: αGalCer/sCD1d: soluble monomeric mouse β2m-CD1d, His-tagged, loaded with αGalCer (protein)
chain: IQKTPQIQVYSRHPPENGKPNILNCYVTQFHPPHIEIQMLKNGKKIPKVEMSDMSFSKDWSFYILAHTEFTPTETDTYACRVKHASMAEPKTVYWDRDMGGGGSGGSGSGGGSEAQQKNYTFRCLQMSSFANRSWSRTDSVVWLGDLQTHRWSNDSATISFTKPWSQGKLSNQQWEKLQHMFQVYRVSFTRDIQELVKMMSPKEDYPIEIQLSAGCEMYPGNASESFLHVAFQGKYVVRFWGTSWQTVPGAPSWLDLPIKVLNADQGTSATVQMLLNDTCPLFVRGLLEAGKSDLEKQEKPVAWLSSVPSSADGHRQLVCHVSGFYPKPVWVMWMRGDQEQQGTHRGDFLPNADETWYLQATLDVEAGEEAGLACRVKHSSLGGQDIILYWSSGSGGHHHHHH

Assays:
B16-HER2 melanoma cells = experiment: Systemic treatment of B16-HER2 lung metastases; type: in vivo, mouse; details: 5 i.v. injections starting 48 hours after tumor graft
Experimental: FIG. 6: In vivo anti tumor activity—Systemic Treatment. a Mice were grafted i.v. with 700.000 B16-HER2 cells and i.v. treatment was started 48 hours later. Mice were injected i.v. 5 times every 2 to 3 days with PBS (control), αGalCer (0.4 μg), αGalCer/sCD1d (sCD1d, 25 μg), or αGalCer/CD1d-anti-HER2 fusion (Fusion, 40 μg). Lung metastases were analysed after 3 weeks by the ImageJ k-means clustering program and expressed as percent metastatic surface over total lung surface. […] Mice were injected i.v. with 700,000 B16-HER2 cells and treatment with PBS (Control), αGalCer, or αGalCer/CD1d-anti-HER2 fusion protein (Fusion) was started 6 days after graft. Mice were treated 3× i.v. every 2-3 days and lung metastases were analyzed after 3 weeks as described above.
Quantification of lung metastasis. Metastatic nodule surface area was measured on 2560×1920 pixels photographs of the whole organs, taken on an Zeiss STEMI SV11 dissection microscope (Carl Zeiss, Jena, Germany) equipped with a PROGRES-C10plus Color Camera (Jenoptik, Jena, Germany). Each image was analyzed with the ImageJ program (rsb.info.nih.gov/ij/) using a k-means clustering algorithm (plugin available on ij-plugins.sourceforge.net). […] The area of the sum of selected color segments was expressed as percentage of the area occupied by the lungs. Both sides of the lung were analyzed. […]

iNKT cells in PBMC = experiment: iNKT frequency in peripheral blood during systemic treatment; type: in vivo, mouse; details: PBMC 3 days after third i.v. injection
Experimental: FIG. 3: iNKT expansion in blood during systemic treatment with αGalCer loaded recombinant CD1d molecules. Mice were bled after the third injection of either PBS (control) αGalCer (0.4 μg), αGalCer/CD1d-anti-Her2 fusion protein (Fusion, 40 μg), or αGalCer/sCD1d (sCD1d, 20 μg). NKT cells were stained in PBMCs using the CD1d-Tetramer-PE and anti CD3 FITC antibody. a representative dot blot of one mouse from each group. b graph representing several mice per group expressed as CD1d tetramer positive and CD3+ cells as percentage of total PBMC.
Increased frequency of iNKT cells during systemic treatment: normally iNKT cells are not detectable in mouse peripheral blood as shown on FIG. 3. In contrast, they became clearly detectable upon systemic treatment with recombinant αGalCer/CD1d molecules, whereas there was no change with αGalCer alone. FIG. 3a gives representative dot plots of FACS staining with CD1d-tetramer+anti-CD3 on PBMC 3 days after the third injection with either PBS, free αGalCer, αGalCer/CD1d-anti HER2, or αGalCer/sCD1d (five mice per group, i.v., injection every 3 days).

[1] = tested on: H-2Kb/OVA specific CD8 T cells; experiment: Adjuvant effect on H-2Kb/OVA specific CD8 T cells upon ovalbumin immunization; type: in vivo, mouse; details: for Frequency of Kb/OVA specific CTLs in the spleens, of total CD8: after OVA peptide boost, 5 days in vitro culture without further stimulation; for Frequency of specific T cells: after boost and in vitro re-stimulation with same stimuli; for H-2Kb/OVA257-264 tetramer CD8 double positive T cells after priming: priming with 200 μg ovalbumin plus adjuvant
Experimental: (§1) FIG. 8: αGalCer loaded sCD1d acts as a strong adjuvant for the expansion of antigen-specific T cells upon active immunization. a kinetics of expansion of H-2K^b/OVA specific CTLs. Mice were primed with 200 μg ovalbumin either as such (i.v.) or with MONTANIDE™ adjuvant (3:7 ratio, s.c.) or with 1 μg αGalCer or 20 μg αGalCer/sCD1d (i.v.). Mice were bled every 5-7 days and PBMC were stained with H-2K^b/oVA tetramer+anti-CD8. Results were expressed as tetramer+ and CD8+ […] as a percentage of total CD8+ T cells. Mice were boosted with OVA peptide (20 μg) on day 22 employing the same adjuvants and route of injection as for primary immunization. b Ten days later, mice were sacrificed and splenocytes were cultured another five days either with no stimuli or with the same stimuli and adjuvants as for the in vivo boost. Frequency of OVA specific T cells was measured as in a. c The presence of mature DC in the same cultures as in b was analyzed by surface staining with anti CD11c and anti CD40 antibodies.
Together with active OVA immunization: An adjuvant effect has previously been attributed to free αGalCer and its potential use in vaccination has been proposed (Silk, J. D., et al. J Clin Invest 114:1800-1811 (2004)). […] In this context, the adjuvant effect on the expansion of antigen-specific T cells in the model of C57 BL/6 mice immunized with ovalbumin was investigated (Hermans, I. F., et al. J Immunol 171:5140-5147 (2003)). […] Furthermore, after boosting these same mice with OVA peptide in the same adjuvants in vivo and then 5 days in vitro culture without further stimulation, the frequency of K^b/OVA specific CTLs in the spleens reached up to 45% of total CD8 in mice that received a boost of OVA peptide with αGalCer/sCD1d, whereas the frequency was 12% in mice boosted with peptide and αGalCer alone (FIG. 8b). A further increase could be obtained by in vitro re-stimulation with the same respective stimuli and the frequency of specific T cells reached close to 70% in both αGalCer and αGalCer/sCD1d-treated mice (FIG. 8b).

B16-HER2 cells = experiment: Precoating experiment, lung metastases of B16-HER2 cells; type: in vivo, mouse; details: cells pre-incubated with agent, injected i.v. into naïve mice
Experimental: Quantification of lung metastasis. Metastatic nodule surface area was measured on 2560×1920 pixels photographs of the whole organs, taken on an Zeiss STEMI SV11 dissection microscope (Carl Zeiss, Jena, Germany) equipped with a PROGRES-C10plus Color Camera (Jenoptik, Jena, Germany). Each image was analyzed with the ImageJ program (rsb.info.nih.gov/ij/) using a k-means clustering algorithm (plugin available on ij-plugins.sourceforge.net). Images were segmented into 9 segments cluster tolerance 1×10−4, randomization seed: 48) and the appropriate segments were selected based on the color of the metastasis reaching the surface of the organ. The area of the sum of selected color segments was expressed as percentage of the area occupied by the lungs. Both sides of the lung were analyzed. This method takes into account both the number and the size of the tumor nodules.

[2] = tested on: splenocytes, CD11c+ CD40+ DC; experiment: Mature DC (CD11c+ CD40+) in splenocyte cultures of OVA-immunized mice; type: cell-based, mouse; details: same cultures, following restimulation
Experimental: as §1
Together with active OVA immunization: An adjuvant effect has previously been attributed to free αGalCer and its potential use in vaccination has been proposed (Silk, J. D., et al. J Clin Invest 114:1800-1811 (2004)). […]

Molecule | Anti tumor effect in words (B16-HER2 melanoma cells) | Frequency of iNKT cells in peripheral blood (iNKT cells in PBMC) | Frequency of Kb/OVA specific CTLs in the spleens, of total CD8 [1] | Frequency of specific T cells [1] [%] | H-2Kb/OVA257-264 tetramer CD8 double positive T cells after priming [1] | Lung metastases of precoated B16-HER2 cells (B16-HER2 cells) | Frequency of mature DC (CD11c+CD40+) [2]
CCCCCCCCCCCCCCCCCCCCCCCCCC(=O)N[C@@H](CO[C@H]1O[C@H](CO)[C@H](O)[C@H](O)[C@H]1O)[C@H](O)[C@H](O)CCCCCCCCCCCCCC [αGalCer, α-galactosylceramide, reference compound] | no significant anti tumor effect | no change | 12% | ~70 | no H-2K^b/OVA257-264 tetramer CD8 double positive T cells could be detected | completely inhibited tumor development | –
B1 | anti tumor activity which was very variable from mouse to mouse | – | up to 45% | ~70 | could be detected | – | increased frequency of mature DC
